Measurements reported in US20240074473A1, “METHOD FOR INDUCING HYPERTROPHIC MUSCLE FIBERS FOR INDUSTRIAL MEAT PRODUCTION” (Yeda Research and Development Co. Ltd., priority 2021, published 2024).

Experiments:
[1] = tested on: primary bovine myoblasts; experiment: Fusion index of primary bovine myoblasts; format: cell-based; details: single administration of 0.5 uM, 72 hours post treatment
Method: Bovine myoblasts were seeded in equal number in 96-well plates and the following day treated either with PM, PM supplemented with 0.5 uM SCH 772984 (ERKi) or differentiation media (DM). Media was replenished daily either with fresh PM or DM (ERKi was not added again). At 72 hours post treatment, cells were fixed and stained for myosin heavy chain, and several fields per condition were imaged. Nuclei per fiber was quantified per field to result in a fusion index. For ovine myoblasts—equal number of cells were seeded in an 8 well chamber slide for 24 hours. The following day cells were treated with either with 1 uM SCH 772984 (ERKi) or differentiation media (DM), supplemented with 100 nM of Sir-Actin reagent, then incubated for 4 hours and then the slide was transferred to a heated and CO2 chambered microscope unit. Several fields of view were selected and live imaging was performed by capturing images of each field every 7 minutes. The series of images for each treatment over a period of 31 hours was stacked into a movie file using ImageJ.
Primary bovine myoblast isolation and treatment: bovine myoblasts were isolated from freshly slaughtered muscle cow muscle with collagenase type II. Following tissue dissociation, the cell suspension was grown for 3-4 days on 10% Matrigel coated plates. […]

[2] = tested on: chicken myoblasts; experiment: Immunofluorescence of sarcomeric proteins in chicken myotubes; format: cell-based; details: 48 hours post treatment
Method: Chicken primary derived myoblasts were used as a model to evaluate the efficiency of SCH772984 as the ERKi, compared to conventional differentiation medium (DM) for the purpose of producing muscle (meat) in tissue culture conditions. Chicken myoblasts were isolated from chicken embryos and expanded in proliferation medium. When sufficient cell numbers were acquired, cells were seeded on tissue culture plates and allowed to adhere for 24 hours. Then medium was changed to either PM supplemented with ERKi or DM. At 24-hours post treatment, the cells that received ERKi were replenished with fresh PM (without the addition of more ERKi), and DM treated cells were replenished with fresh DM. Media was replaced daily over a period of 72 hours.

[3] = tested on: ERK1/2 and RXR; experiment: Co-immunoprecipitation of ERK1/2 and RXR in myoblasts; format: cell-based, mouse; details: 1 uM, 4 hours, nuclear lysates
Method: Co-immunoprecipitation (Co-IP). Primary myoblasts derived from gastrocnemius muscle were pooled from 10 mice and plated on 15 cm dishes and allowed to adhere for 24 hours. The following day, Bio-Amf2 media was replaced supplemented either with DMSO or 1 uM SCH772984. […] 1 mg of protein was used to immunoprecipitate ERK1/2 using 2 ug of ERK1/2Antibody (Sigma M7927). Rabbit IgG was used as a control. […] 1% of original volume of lysate loaded into IP reaction was loaded into the gel as input control. Membranes were blotted with RXR antibody (SCBT sc-553).

[4] = tested on: CaMKII; experiment: Western blot of CaMKII activation (p-CaMKII T287) in myoblasts; format: cell-based, mouse
Method: Western Blot analysis. Cultured cells and whole tissues extracts were prepared with RIPA buffer supplemented with protease inhibitor cocktail (SIGMA P8340), and phosphatase inhibitor cocktails (SIGMA P5726 and P0044). Western blotting was performed using the Mini-PROTEAN Tetra Cell electrophoresis system, and transferred to PVDF membranes. The following primary antibodies concentrations were used p-CAMKII 1:1000 (Abcam ab182647), CaMKII 1:1000 (Cell Signaling 3362), GAPDH 1:10,000 (Abcam ab181602), p-ERK1/2 1:20,000 (SIGMA M9692), ERK1/2 1:40,000 (SIGMA), Myosin Heavy Chain (MF-20 DSHB hybridoma supernatant 1:100) Horseradish peroxidase conjugated secondary anti-mouse, anti-rabbit or anti-goat was used to detect proteins (Jackson Immunology). Western blots were imaged using the Chemidoc Multiplex system (Bio-rad).

## O=C(Nc1ccc2[nH]nc(-c3ccncc3)c2c1)[C@@H]1CCN(CC(=O)N2CCN(c3ccc(-c4ncccn4)cc3)CC2)C1 [SCH772984]
[1]
  Increase in fusion index compared to DM: ~8 fold
[1]; listed as ERKi
  Increase in fusion index compared to DM: 6 fold
[2]
  Sarcomeric structure (striation of actinin, troponin, phalloidin signals): sarcomeric structure is already apparent
[3]
  RXR immunoprecipitated with ERK1/2 (interaction): attenuated
[4]; 1 μM ERKi time-course
  Time of CaMKII activation post ERKi treatment: ≤ 16 h
[4]; treatment of myoblasts with ERKi, 24 hours
  CaMKII activation (p-CaMKII T287): activated
